Key:
[1] = tested on: desmid strain (UTEX 1237); test: Growth of uncontaminated laboratory microalgae culture with fungicide (OD 750 nm); format: cell-based; conditions: UTEX 1237, 32° C., OD 750 nm daily
Procedure: (§1) A desmid strain (UTEX 1237) is inoculated into 1 ml of media at an initial A750 of 0.15. […] These cultures are monitored daily for growth by measuring the optical density of the culture at 750 nm. If pests are detected, their genomic DNA is quantitated at the beginning and end of the experiment using the methods presented above. […]
as §1, with “into 1.0” for “into 1”, “media IABR6” for “media”, “initial OD (A750)” for “initial A750”
as §1, with “OD (750 nm)” for “A750”, “in these cultures” for “detected,”, “experiment.” for “experiment using the methods presented above.”

[2] = tested on: chytrids known to infect the strain (desmid UTEX 1237); test: Growth of chytrid-inoculated microalgae culture with fungicide (OD 750 nm); format: cell-based
Procedure: Microalgae cultures are prepared as described above and further inoculated with chytrids known to infect the strain, grown, and monitored as described above. […] In contrast, contaminated cultures grown in the presence of 250 ppb or higher concentrations of fluazinam are not affected by the presence of added chytrid. Fluazinam at a concentration of 100 ppb results in a stabilization of microalgae density at 0.8 ODU which is about 4 times the density of microalgae grown in the absence of fluazinam.
(§2) Microalgae cultures are prepared as described above and further inoculated with chytrids known to infect the strain, grown and monitored as described above. […] In contrast, contaminated cultures grown in the presence of 1 ppm or higher concentrations of Headline® are not affected by the presence of added chytrid contaminant. Headline® at a concentration of 0.5 ppm results in a stabilization of microalgae density at about 0.3 ODU which is about 2 times the density of microalgae grown in the absence of Headline®.
as §2, with “2” for “1”, “Thiram®” for “Headline®”, “1.0” for “0.5”, “0.8” for “0.3”, “4” for “2”, “Thiram®.” for “Headline®.”

microalgae = test: Ranges of microalgae toxicity (serial dilution of fungicide in growing culture); conditions: range in which fungicide begins to show growth effects on microalgae
From the text: The present disclosure provides for the introduction of fungicides at an effective concentration. Effective concentrations may be determined according to manufacturer's instructions or may be determined empirically. An effective concentration of a fungicide is not toxic to the microalgae being cultured in the liquid system. Methods to determine toxicity are known in the art and include serial dilutions of a test fungicide in a growing liquid culture of microalgae. One of skill in the art would understand that different microalgae may have different ranges of toxicity that may be determined by growth of a microalga in the presence of a serial dilution of a fungicide.
Algae are screened for sensitivity to chemicals by preparing 180 ml of a log phase culture. The log phase culture is transferred into a 96 well microtiter plate at an absorbance at 750 nm (OD750 or A750) of ˜0.2. Twenty microliters of media is provided into the top row as a negative control, the middle six rows receive a 20 microliter dilution, which is a 10 fold dilution of the chemical at each transfer, of the chemical across an appropriate concentration gradient, and the bottom row receives 20 microliter of the solvent used to solubilize the pesticide alone as a control. The total volume per well is 200 μl. Each chemical is tested in triplicate. The growth of the algae is tracked daily by measuring the A750. After 8 days, the growth rate of the algae is measured by fitting the growth curve to a log model and deriving the maximum growth rate (r). The impact of the chemical is calculated by comparing the r of the algae at various dilutions of the pesticide to the control.

[3] = tested on: Pest in infected Scenedesmus dimorphus culture; test: Fungicide efficacy on pest control in infected microalgae culture; format: cell-based; conditions: for Rating: rating scale of 0 to 3 by percent efficacy; for Scenedesmus dimorphus efficacy: first trial
From the text: Failure to treat an infected culture results in the collapse and loss of the microalgae culture. […] Test fungicides are graded on a rating scale of 0 to 3 where a score of 0 represents an efficacy of between 0 and 25%, a score of 1 represents an efficacy of between 26 and 50%, a score of 2 represents an efficacy of between 51 and 75% and a score of 3 represents an efficacy of between 76 and 100%.

chytrid pest = test: Outdoor ponds P16 and PA6 with or without fluazinam treatment
Procedure: Monitoring for chytrid pest and microalgae growth is performed as described in the examples above. In Pond 16 (P16), a signal for the presence of a chytrid pest is detected beginning on Day 8 using the universal primer pair to the methyltransferase gene (SEQ ID NOs: 30 and 31) and to the ITS gene (SEQ ID NOs: 32 and 33). At this point, 400 liters of P16 are inoculated into Pond A6 (PA6). Continuous detection of the presence of chytrid in pond P16 and A6, indicates a need for crop protection and 0.5 ppm of fluazinam is added on Day 11 to P16 but not PA6. Monitoring of the growth of microalgae is continued in both Pond 16 and Pond A6 using total organic carbon (TOC), OD(750), fluorescence, and a FlowCAM®.

pest FD100 = test: 200,000 liter outdoor desmid pond P08, qPCR monitoring and treatment; set-up: species or system chytrid FD100
Procedure: A 200,000 liter outdoor pond located in Las Cruces, N. Mex. is inoculated with a desmid strain at an initial OD (750 nm) of ˜0.15 (pond P08). Growth of the microalgae is monitored daily by measuring the ash free dry weight of the culture. PCR monitoring is performed daily to detect the presence of pests.
Initially, the Ct value for the pest is above the threshold of Ct=30 until day 15 (See, FIG. 14). The measured Ct observed for pest FD100 monitoring stays below Ct=30 and indicates a need for crop protective action. On day 18 post-inoculation, fluazinam is added at a concentration of 0.5 ppm. Daily monitoring is continued and the Ct observed for pest FD100 increases above the Ct=30 threshold and remains above the threshold through day 38.
Successful culture depends on the timely identification of a pest. On day 30, in response to a decrease in optical density of the culture, 1 ppm of pyraclostrobin is added.

Desmid species = test: Algae sensitivity screen, 96 well, growth rate by A750 over 8 days; format: cell-based
Procedure: (§3) The total volume per well is 200 μl. Each chemical is tested in triplicate.

Scenedesmus dimorphus = test: as above; format: cell-based
Procedure: as §3

Scenedesmus species = test: as above; format: cell-based; conditions: 8 days
Procedure: as §3

[4] = fluazinam 100 ppb, contaminated culture
[5] = Tetradesmus dimorphus, read-out: Scenedesmus dimorphus efficacy
[6] = log phase culture, 10 fold dilutions

Structure (SMILES)	Ranges of Microalgae toxicity (microalgae)	Rating [3]	Desmid species toxicity (Desmid species; Desmid species)	Scenedesmus dimorphus toxicity (Scenedesmus dimorphus; Scenedesmus dimorphus)	Scenedesmus species toxicity (Scenedesmus species; Scenedesmus species)	other results
O=[N+]([O-])c1cc(C(F)(F)F)c(Cl)c([N+](=O)[O-])c1Nc1ncc(C(F)(F)F)cc1Cl [fluazinam, 3-chloro-N-[3-chloro-2,6-dinitro-4-(trifluoromethyl)phenyl]-5-(trifluoromethyl)-2-pyridinamine]	>7.5 ppm	2 (a score of 2 represents an efficacy of between 51 and 75%)	–	–	–	concentrations that do not significantly affect the growth of the uncontaminated microalgae culture [1]: up to 2 ppm; concentration at which contaminated cultures are not affected by the presence of added chytrid ([2]; UTEX 1237 inoculated with chytrids): ≥ 250 ppb; density relative to microalgae grown in the absence of fungicide [2, 4]: about 4 times; stabilization of microalgae density [2, 4]: 0.8 ODU; activity at 0.8 ppm [3, 5]: 67%; growth of microalgae in treated pond (chytrid pest; 0.5 ppm added on Day 11 to P16, untreated PA6 collapses): Logarithmic growth continues; fraction of infected cells after treatment (chytrid pest; 0.5 ppm, pond P16, increases in untreated PA6): stabilizes or decreases; Ct observed for pest FD100 after treatment (pest FD100; 0.5 ppm added day 18 post-inoculation, through day 38): > 30
COC(=O)N(OC)c1ccccc1COc1ccn(-c2ccc(Cl)cc2)n1 [pyraclostrobin, methyl N-[2-[[[1-(4-chlorophenyl)-1H-pyrazol-3-yl]oxy]methyl]phenyl]-N-methoxycarbamate]	>15 ppm	2 (a score of 2 represents an efficacy of between 51 and 75%)	–	–	–	activity at 2 ppm [3, 5]: 66%; culture outcome after second fungicide (pest FD100; 1 ppm added on day 30 after decrease in optical density): the culture collapses
CON=C(Cc1cccnc1)c1ccc(Cl)cc1Cl [pyrifenox]	0.004-0.156 ppm	0 (a score of 0 represents an efficacy of between 0 and 25%)	–	–	–	Scenedesmus dimorphus efficacy ([3]; result as symbol): (+/−); Desmid species toxicity (Desmid species; [6]): 0.004-0.0156 ppm; Scenedesmus dimorphus toxicity (Scenedesmus dimorphus; [6]): 0.039-0.156 ppm; Scenedesmus species toxicity (Scenedesmus species; [6]): 0.039-0.156 ppm
CCCN(CC)CC1COC2(CCC(C(C)(C)C)CC2)O1 (centres unmarked) [spiroxamine]	0.0625-1.0 ppm	0 (a score of 0 represents an efficacy of between 0 and 25%)	0.250-1.0 ppm	0.0625-0.250 ppm	0.250-1.0 ppm	–
Cc1ccc(N(SC(F)(Cl)Cl)S(=O)(=O)N(C)C)cc1 [tolylfluanid, N-[dichloro(fluoro)methyl]sulfanyl-N-(dimethylsulfamoyl)-4-methylaniline]	1.56-25.0 ppm	0 (a score of 0 represents an efficacy of between 0 and 25%)	6.25-25.0 ppm	1.56-6.25 ppm	6.25-25.0 ppm	Scenedesmus dimorphus efficacy ([3]; 5 ppm, result in words): 5 ppm Delayed Crash
CCCOC/C(=N\c1ccc(Cl)cc1C(F)(F)F)n1ccnc1 [triflumizole]	1.563-6.25 ppm	0 (a score of 0 represents an efficacy of between 0 and 25%)	1.563-6.25 ppm	1.563-6.25 ppm	1.563-6.25 ppm	–
CCC(C)(NC(=O)c1cc(Cl)c(C)c(Cl)c1)C(=O)CCl (centres unmarked) [zoxamide]	0.0156-0.250 ppm	0 (a score of 0 represents an efficacy of between 0 and 25%)	0.0156-0.0625 ppm	0.0625-0.250 ppm	0.0156-0.0625 ppm	–

Reference: patent US20140378513A1, “USE OF FUNGICIDES IN LIQUID SYSTEMS” (priority 2011, published 2014)
